This note sets out measurements from article PMC8398262, “New Sulfanilamide Derivatives Incorporating Heterocyclic Carboxamide Moieties as Carbonic Anhydrase Inhibitors” (Pharmaceuticals, 2021).

One data set has as its target T1, hCA II (Homo sapiens, UniProt P00918).
T1 construct: made in house
Kind of data set: stopped-flow CO2 hydrase assay, hCA II. The class given is biochemical. As to conditions: for Ki: stopped-flow CO2 hydrase assay, mean from 3 different assays, errors ±5–10%. How it is done:
(§1) For each inhibitor, at least six traces of the initial 5–10% of the reaction were used for determining the initial velocity. The uncatalyzed rates were determined in the same manner and subtracted from the total observed rates. Stock solutions of the inhibitor (0.1 mM) were prepared in distilled–deionized water and dilutions up to 0.01 nM were done thereafter with the assay buffer. Inhibitor and enzyme solutions were preincubated together for 15 min at room temperature prior to the assay, allowing the formation of the E–I complex.

The next data set deals with T2, hCA I (Homo sapiens, UniProt P00915).
T2 construct: made in house
Kind of data set: stopped-flow CO2 hydrase assay, hCA I. It is filed as biochemical. The conditions noted are these: mean from 3 different assays, errors ±5–10%. The procedure:
as §1

In another data set the target is T3, hCA IX (Homo sapiens, UniProt Q16790).
T3 construct: made in house
Kind of data set: stopped-flow CO2 hydrase assay, hCA IX. The class given is biochemical. The conditions noted are these: mean from 3 different assays, errors ±5–10%. The procedure: as §1

Another data set has as its target T4, hCA XII (Homo sapiens, UniProt O43570).
T4 construct: made in house
Kind of data set: stopped-flow CO2 hydrase assay, hCA XII. It is filed as biochemical. As to conditions: mean from 3 different assays, errors ±5–10%. How it is done: as §1

T2 sequence (P00915 whole entry): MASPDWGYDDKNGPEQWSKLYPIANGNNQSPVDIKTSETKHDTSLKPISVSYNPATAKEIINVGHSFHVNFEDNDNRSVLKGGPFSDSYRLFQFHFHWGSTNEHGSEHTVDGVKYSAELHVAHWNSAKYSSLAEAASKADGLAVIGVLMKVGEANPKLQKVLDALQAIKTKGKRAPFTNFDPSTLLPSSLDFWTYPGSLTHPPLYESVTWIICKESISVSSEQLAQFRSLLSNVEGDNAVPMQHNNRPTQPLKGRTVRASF
T4 sequence (O43570 25-354): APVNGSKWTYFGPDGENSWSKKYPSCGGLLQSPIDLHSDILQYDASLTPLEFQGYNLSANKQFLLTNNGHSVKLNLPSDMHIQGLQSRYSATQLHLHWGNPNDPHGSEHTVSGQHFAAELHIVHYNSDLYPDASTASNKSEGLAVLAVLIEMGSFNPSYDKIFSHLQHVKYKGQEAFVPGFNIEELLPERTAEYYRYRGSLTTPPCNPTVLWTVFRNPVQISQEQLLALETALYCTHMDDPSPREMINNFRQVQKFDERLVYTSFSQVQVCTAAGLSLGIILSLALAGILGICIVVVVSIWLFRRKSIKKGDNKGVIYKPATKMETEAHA

As usually defined, the Ki is the equilibrium dissociation constant of an inhibitor or competing ligand from its target. Broadly, the melting point is the temperature, or range, at which the solid turns liquid. As to `CCn1c(C(=O)Nc2ccc(S(N)(=O)=O)cc2)cc2sccc21` [Compound 8b, N-[4-(aminosulfonyl)phenyl]-4-ethyl-4H-thieno[3,2-b]pyrrole-5-carboxamide], the melting point was 248 to 249 °C. The compound also showed a Ki at hCA II of 6.8 nM. Also, affinity at hCA I was put at a Ki of 270 nM. Moreover, on hCA IX, the Ki worked out at 251 nM. In addition, affinity on hCA XII was put at a Ki of 5.1 nM.

`NS(=O)(=O)c1ccc(NC(=O)c2cc3occc3n2Cc2ccccc2F)cc1` [Compound 7d, N-[4-(aminosulfonyl)phenyl]-4-(2-fluorobenzyl)-4H-furo[3,2-b]pyrrole-5-carboxamide] came in with a melting point of 240 to 242 °C.

Compound `Cn1c(C(=O)Nc2ccc(S(N)(=O)=O)cc2)cc2occc21` [Compound 7a, N-[4-(aminosulfonyl)phenyl]-4-methyl-4H-furo[3,2-b]pyrrole-5-carboxamide] came in with a melting point of 273 to 275 °C. The same compound yielded a Ki on hCA II of 8.4 nM. In addition, on hCA I, the affinity corresponds to a Ki of 718 nM. The Ki at hCA IX was 103 nM. In addition, on hCA XII, the affinity, expressed as Ki, was 6.9 nM.

`COc1ccc(-c2nc3s/c(=C\c4ccc(-c5ccc(S(N)(=O)=O)cc5)o4)c(=O)n3n2)cc1OC` [Compound 17b, 4-(5-{(Z)-[2-(3,4-Dimethoxyphenyl)-6-oxo[1,3]thiazolo[3,2 b][1,2,4]triazol-5(6H)-ylidene]methyl} -2-furyl)benzenesulfonamide] showed a melting point of 294 to 295 °C. On hCA II, this compound showed a Ki of 59.4 nM. At hCA I, this compound had a Ki of 918 nM. Further, on hCA IX, affinity was put at a Ki of 253 nM. In addition, the Ki on hCA XII turned out to be 40.2 nM.

As to `NS(=O)(=O)c1ccc(NC(=O)C2=C(c3ccccc3)SCCO2)cc1` [Compound 14a, N-[4-(aminosulfonyl)phenyl]-3-phenyl-5,6-dihydro-1,4-oxathiine-2-carboxamide], the Ki at hCA II is 6.7 nM; on hCA I, 56.5 nM; at hCA IX, 281 nM; at hCA XII, 6.1 nM.

Take `NS(=O)(=O)c1ccc(-c2ccc(/C=c3\sc4nc(-c5cccc(Cl)c5)nn4c3=O)o2)cc1` [Compound 17a, 4-(5-{(Z)-[2-(3-chlorophenyl)-6-oxo[1,3]thiazolo[3,2-b][1,2,4]triazol-5(6H)-ylidene]methyl}-2-furyl)enzenesulfonamide]: the melting point fell in the range of 312 to 315 °C. On hCA II, this compound registered an inhibitory constant (Ki) of 44.7 nM. Moreover, at hCA I, the affinity corresponds to a Ki of 2920 nM. Moreover, the affinity at hCA IX, expressed as Ki, was 320 nM. The same compound had a Ki at hCA XII of 7.6 nM.

Compound `NS(=O)(=O)c1ccc(CCNC(=O)C2=C(c3ccccc3)SCCO2)cc1` [Compound 14b, N-{2-[4-(aminosulfonyl)phenyl]ethyl}-3-phenyl-5,6-dihydro-1,4-oxathiine-2-carboxamide] gave a melting point of 208 to 209 °C. At hCA II, this compound showed a Ki of 7.4 nM. Besides, the Ki on hCA I is 71.2 nM. At hCA IX, this compound had a Ki of 155 nM. This compound showed a Ki at hCA XII of 6.6 nM.

`NS(=O)(=O)c1ccc(NC(=O)c2cc3sccc3n2Cc2ccccc2)cc1` [Compound 8c, N-[4-(aminosulfonyl)phenyl]-4-benzyl-4H-thieno[3,2-b]pyrrole-5-carboxamide]: the melting point lay within 255 to 256 °C. Further, affinity at hCA II was put at a Ki of 8.9 nM. The compound further displayed a Ki at hCA I of 400 nM. On hCA IX, this compound returned a Ki of 140 nM. Further, the affinity on hCA XII corresponds to a Ki of 7.8 nM.

As to `CC1(C(=O)Nc2ccc(S(N)(=O)=O)cc2)Oc2ccccc2NC1=O` (stereo not shown) [Compound 11, N-[4-(aminosulfonyl)phenyl]-2-methyl-3-oxo-3,4-dihydro-2H-1,4-benzoxazine-2-carboxamide], the melting point was 269 to 270 °C. This compound registered a Ki at hCA II of 6.5 nM. For the same compound, at hCA I, the affinity, expressed as Ki, was 70.6 nM. In addition, the Ki at hCA IX is 260 nM. On hCA XII, this compound showed a Ki of 5.3 nM.

Compound `Cn1c(C(=O)Nc2ccc(S(N)(=O)=O)cc2)cc2sccc21` [Compound 8a, N-[4-(aminosulfonyl)phenyl]-4-methyl-4H-thieno[3,2-b]pyrrole-5-carboxamide] returned a melting point of 276 to 278 °C. In addition, at hCA II (selectivity for hCA II over hCA I), the “selectivity index (SI) towards hCA I” value worked out at 75.5. The “selectivity index (SI) compared to hCA IX” value at hCA II (selectivity for hCA II over hCA IX) was found to be 7.6. For the same compound, the “selectivity index (SI) to hCA XII” value on hCA II (selectivity for hCA II over hCA XII) was determined as 3.5. The compound further gave a Ki at hCA II of 8.8 nM. Besides, the Ki at hCA I was found to be 665 nM. Moreover, on hCA IX, the Ki turned out to be 66.6 nM. This compound also came in with a Ki at hCA XII of 30.7 nM.

Turning to `NS(=O)(=O)c1ccc(NC(=O)c2cc3occc3n2Cc2ccccc2)cc1` [Compound 7c, N-[4-(aminosulfonyl)phenyl]-4-benzyl-4H-furo[3,2-b]pyrrole-5-carboxamide], the melting point was in the range of 240 to 241 °C. Moreover, the affinity on hCA II, expressed as Ki, was 37.5 nM. For the same compound, the Ki on hCA I came to 3560 nM. Moreover, on hCA IX, affinity was put at a Ki of 276 nM. The same compound yielded a Ki on hCA XII of 4.6 nM.

Compound `NS(=O)(=O)c1ccc(NC(=O)c2cc3occc3n2Cc2ccc(Cl)cc2)cc1` [Compound 7f, N-[4-(aminosulfonyl)phenyl]-4-(4-chlorobenzyl)-4H-furo[3,2-b]pyrrole-5-carboxamide] yielded a melting point of 237 to 238 °C. This compound also showed a Ki on hCA II of 34.3 nM. In addition, the affinity on hCA I corresponds to a Ki of 878 nM. Further, on hCA IX, the affinity, expressed as Ki, was 187 nM. For the same compound, on hCA XII, the affinity corresponds to a Ki of 37.2 nM.

`NS(=O)(=O)c1ccc(NC(=O)c2cc3occc3n2Cc2ccccc2Cl)cc1` [Compound 7e, N-[4-(aminosulfonyl)phenyl]-4-(2-chlorobenzyl)-4H-furo[3,2-b]pyrrole-5-carboxamide] returned a melting point of 239 to 241 °C. The compound further had a Ki at hCA II of 23.8 nM. This compound also registered a Ki on hCA I of 858 nM. Besides, the affinity at hCA IX, expressed as Ki, was 239 nM. The same compound returned a Ki at hCA XII of 19.6 nM.

For `NS(=O)(=O)c1ccc(NC(=O)c2cc3sccc3n2Cc2ccc(Cl)cc2)cc1` [Compound 8f, N-[4-(aminosulfonyl)phenyl]-4-(4-chlorobenzyl)-4H-thieno[3,2-b]pyrrole-5-carboxamide], the melting point was in the range of 219 to 220 °C. The compound further had a Ki at hCA II of 68.1 nM. At hCA I, this compound showed an inhibition constant (Ki) of 699 nM. This compound also gave a Ki at hCA IX of 81.4 nM. In addition, on hCA XII, the Ki was 8.9 nM.

The compound `NS(=O)(=O)c1ccc(NC(=O)c2cc3sccc3n2Cc2ccccc2F)cc1` [Compound 8d, N-[4-(aminosulfonyl)phenyl]-4-(2-fluorobenzyl)-4H-thieno[3,2-b]pyrrole-5-carboxamide] registered a melting point of 235 to 237 °C. Also, at hCA II, the affinity corresponds to a Ki of 8.7 nM. This compound had a Ki at hCA I of 656 nM. Besides, affinity at hCA IX was put at a Ki of 171 nM. Also, on hCA XII, the affinity corresponds to a Ki of 8.2 nM.
